Source: PubChem BioAssay (NCI)
Values after ≈ are worked out from the molar mass of the structure shown.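 Test compounds were applied to cells in 96-well plates for 48 hours at 5 doses. Here, GI50 denotes the concentration required for 50% inhibition of growth. TGI is the concentration that stops growth completely.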

Columns and labels:
Assay in all cases: NCI tumour cell line growth inhibition, 48 h
HOP-62 NSCLC = system: HOP-62 NSCLC
NCI-H522 lung = system: NCI-H522 lung
DU-145 prostate = system: DU-145 prostate
LOX IMVI melanoma = system: LOX IMVI melanoma
NCI-H226 lung = system: NCI-H226 lung
HCC-2998 colon = system: HCC-2998 colon
NCI-H23 lung = system: NCI-H23 lung
CCRF-CEM leukemia = system: CCRF-CEM leukemia
MALME-3M melanoma = system: MALME-3M melanoma
SF-539 CNS = system: SF-539 CNS
EKVX NSCLC = system: EKVX NSCLC

SMILES: CCP(=O)(CC)C(Cl)Cl
- TGI (HOP-62 NSCLC): > 100 µM
- TGI (NCI-H522 lung): > 100 µM
- TGI (DU-145 prostate): > 100 µM
- TGI (LOX IMVI melanoma): > 100 µM
- TGI (NCI-H226 lung): > 100 µM
- TGI (HCC-2998 colon): > 100 µM
- TGI (NCI-H23 lung): > 100 µM
- TGI (CCRF-CEM leukemia): > 100 µM

SMILES: CC(=O)Nc1ccc(C(=O)NN2C(=O)C(Cl)/C2=C/c2ccco2)cc1 (centres undefined)
- TGI (HOP-62 NSCLC): > 100 µM
- TGI (NCI-H522 lung): > 100 µM
- TGI (MALME-3M melanoma): > 100 µM
- TGI (NCI-H226 lung): > 100 µM
- TGI (HCC-2998 colon): > 100 µM
- TGI (SF-539 CNS): > 100 µM
- TGI (NCI-H23 lung): > 100 µM
- TGI (CCRF-CEM leukemia): > 100 µM

SMILES: O=C1CC2CC3OC3[C@H]3c4cc5c(cc4C(=O)N1C23)OCO5 (some centres undefined)
- TGI (EKVX NSCLC): > 100 µM
- TGI (HOP-62 NSCLC): > 100 µM
- TGI (NCI-H522 lung): > 100 µM
- TGI (MALME-3M melanoma): > 100 µM
- TGI (LOX IMVI melanoma): > 100 µM
- TGI (NCI-H226 lung): > 100 µM
- TGI (HCC-2998 colon): > 100 µM
- TGI (SF-539 CNS): > 100 µM
- TGI (CCRF-CEM leukemia): > 100 µM

SMILES: COc1cc(C(C)O)c(S(=O)(=O)CC(C)O)nn1 (centres undefined)
- TGI (EKVX NSCLC): > 100 µM
- TGI (NCI-H522 lung): > 100 µM
- TGI (DU-145 prostate): > 100 µM
- TGI (MALME-3M melanoma): > 100 µM
- TGI (LOX IMVI melanoma): > 100 µM
- TGI (NCI-H226 lung): > 100 µM
- TGI (HCC-2998 colon): > 100 µM
- TGI (SF-539 CNS): > 100 µM
- TGI (NCI-H23 lung): > 100 µM
- TGI (CCRF-CEM leukemia): > 100 µM

SMILES: CC(=O)c1c(C)nc(SSc2nc(C)c(C(C)=O)c(-c3ccc(Cl)cc3)c2C#N)c(C#N)c1-c1ccc(Cl)cc1
- GI50 (EKVX NSCLC): 145 µg/mL
- TGI (EKVX NSCLC): > 150 µg/mL
- GI50 (HOP-62 NSCLC): 47.5 µg/mL (≈ 78.7 µM)
- TGI (HOP-62 NSCLC): > 150 µg/mL
- GI50 (DU-145 prostate): 140 µg/mL (≈ 232 µM)
- TGI (DU-145 prostate): > 150 µg/mL
- GI50 (MALME-3M melanoma): 50.9 µg/mL
- TGI (MALME-3M melanoma): > 150 µg/mL
- GI50 (LOX IMVI melanoma): 49.2 µg/mL (≈ 81.6 µM)
- TGI (LOX IMVI melanoma): > 150 µg/mL
- GI50 (SF-539 CNS): 47.7 µg/mL
- TGI (SF-539 CNS): > 150 µg/mL
- GI50 (NCI-H23 lung): 67.4 µg/mL
- TGI (NCI-H23 lung): > 150 µg/mL
- GI50 (CCRF-CEM leukemia): > 150 µg/mL
- TGI (CCRF-CEM leukemia): > 150 µg/mL

SMILES: O=C(N/N=C/c1cc(Cl)cc(Cl)c1[O-])c1ccccc1O.O=C(N/N=C/c1cc(Cl)cc(Cl)c1[O-])c1ccccc1O.[Co+2]
- GI50 (EKVX NSCLC): 1.02 µM
- TGI (EKVX NSCLC): 14.8 µM
- TGI (HOP-62 NSCLC): 5.07 µM
- TGI (NCI-H522 lung): 1.63 µM
- GI50 (MALME-3M melanoma): 2.19 µM
- TGI (MALME-3M melanoma): 16 µM
- TGI (LOX IMVI melanoma): 11.8 µM
- TGI (NCI-H226 lung): 4.1 µM
- TGI (HCC-2998 colon): 6.63 µM
- GI50 (SF-539 CNS): 0.486 µM
- TGI (SF-539 CNS): 5.68 µM
- GI50 (NCI-H23 lung): 0.814 µM
- TGI (NCI-H23 lung): 5.47 µM
